One may read the ED50 as the dose that gives a 50% effect, or the effect in half of the subjects. The inhibition is how much of the control response was suppressed. Usually IC50 stands for the concentration that gives 50% inhibition.

Molecules are shown by their SMILES. Structures can show the parent of a compound that is named as a salt. Where two headings read alike, the source gives them in different places.

The source of these data is patent US8372866B2, “2-aryl and 2-heteroaryl 4H-1-benzopyran-4-one-6-amidino derivatives, new pharmacological agents for the treatment of arthritis, cancer and related pain” (Rottapharm S.p.A., priority 2008, dated 2013).

Data set [1] deals with Zymosan-induced mechanical hyperalgesia. Nature of the data set: Zymosan-induced mechanical hyperalgesia (Randall-Selitto), model of inflammatory pain. The following applies: for ED50: read-out: ED50 4 hrs. It counts as in vivo, rat. The protocol: In this model, typically a male Sprague-Dawley or Wistar rat (200-250 g) receives an interplantar injection of 3 mg/100 μl zymosan into one hind paw. A marked inflammation occurs in this hind paw. Drugs are administered orally for evaluation of efficacy, 30 min. before the inflammatory insult. […] The quantisation of the analgesic effect is achieved by an analgesimeter, which consists in applying to the inflamed paw an increasing weight (from 130-140 g up to 500 g). […] For each test compound, at least three doses were used, with 8 animals per group. Compounds of the invention were tested at 10, 20 and 40 mg/Kg.

Data set [2] concerns the target T1, recombinant human aggrecanase 1 (ADAMTS-4) (Homo sapiens, UniProt O75173).
T1 construct: ADAMTS-4 aminoacids F213-A579 with C-terminal tag; purchased Invitek GmbH, Berlin
T1 sequence (O75173 213-579): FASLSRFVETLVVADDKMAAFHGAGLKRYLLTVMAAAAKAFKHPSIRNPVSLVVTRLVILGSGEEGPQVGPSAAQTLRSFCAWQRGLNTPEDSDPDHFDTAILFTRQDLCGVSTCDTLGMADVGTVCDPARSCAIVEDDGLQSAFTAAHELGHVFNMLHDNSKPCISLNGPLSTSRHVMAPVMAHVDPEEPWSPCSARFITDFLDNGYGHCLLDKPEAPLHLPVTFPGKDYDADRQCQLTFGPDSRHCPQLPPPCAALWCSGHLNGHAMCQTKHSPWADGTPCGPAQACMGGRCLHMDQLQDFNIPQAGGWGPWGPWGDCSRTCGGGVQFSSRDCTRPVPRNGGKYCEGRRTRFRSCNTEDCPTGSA
The data set can be described thus: InviLISA Aggrecanase activity assay, aggrecanase 1. It counts as biochemical. The following applies: inhibitors tested at 10 μM final concentration. The protocol: (§1) The InviLISA Aggrecanase activity assay (Invitek GmbH, Berlin) was used to screen and characterise aggrecanase inhibitors. The assay was carried out in two steps, according to Will et al. (Will H, Dettloff M, Bendzko P, Svenshnikov P, A Quantitative Assay for aggrecanase Activity; 2005, Journal of Biomolecular Techniques, 16 (4), 459-472). A recombinant fragment of human aggrecan interglobular domain (aggrecan-IGD; T331-G458) is first digested with aggrecanase. Proteolytic cleavage of the substrate releases an aggrecan peptide with the N-terminal sequence ARGSVIL (ARGSVIL-peptide), that was then quantified with two monoclonal anti-peptide antibodies (ELISA module). For precise calculation of product, ARGSVIL-peptide standard concentrations were run in parallel.
(§2) 1) Proteolysis of aggrecan-IGD by aggrecanase. Aggrecan-IGD was incubated with standard recombinant human aggrecanase 1 (ADAMTS-4 aminoacids F213-A579 with C-terminal tag) or standard recombinant human aggrecanase 2 (ADAMTS-5 aminoacids S262-G625 with C-terminal tag) in the absence (total enzymatic activity) or presence (modulated enzymatic activity) of inhibitors to be tested. Enzymes were pre-incubated with the inhibitors or the appropriate concentration of diluent as control (DMSO 0.25% final concentration in proteolysis), at 4° C. for 30 min prior to assaying their activity. Five microliters of mix enzyme-inhibitor were added to the substrate (0.1 μM final concentration) in a total volume of 100 μL and incubated for 15 minutes at 37° C. The reaction was terminated with EDTA-containing buffer. The inhibitors were tested at 10 μM final concentration and compounds achieving ≧50% inhibitory effect were evaluated for IC50 calculation, in a range generally extended from 0.1 to 10 μM final concentration.
(§3) 2) Aggrecan peptide ELISA. ARGSVIL-peptide standard, proteolytic digestion of Aggrecan-IGD with standard aggrecanases and test samples were incubated in microtiter wells pre-coated with anti-ARGSVIL-neoepitope antibody. ARGSVIL-peptide is bound to the coated antibody, while other components are removed by washing and aspiration. The bound ARGSVIL-peptide was detected with a second peroxidase-labelled antibody. Any excess of the conjugate was removed by washing and aspiration. The amount of peroxidase bound to different wells was determined in reactions with peroxidase substrate TMB. The reactions are stopped by addition of sulphuric acid solution and absorbance is read at 450 nm in a microtiter plate spectrophotometer.

For data set [3], the target named is T2, recombinant human aggrecanase 2 (ADAMTS-5) (Homo sapiens, UniProt Q9UNA0).
T2 construct: ADAMTS-5 aminoacids S262-G625 with C-terminal tag; purchased Invitek GmbH, Berlin
T2 sequence (Q9UNA0 262-625): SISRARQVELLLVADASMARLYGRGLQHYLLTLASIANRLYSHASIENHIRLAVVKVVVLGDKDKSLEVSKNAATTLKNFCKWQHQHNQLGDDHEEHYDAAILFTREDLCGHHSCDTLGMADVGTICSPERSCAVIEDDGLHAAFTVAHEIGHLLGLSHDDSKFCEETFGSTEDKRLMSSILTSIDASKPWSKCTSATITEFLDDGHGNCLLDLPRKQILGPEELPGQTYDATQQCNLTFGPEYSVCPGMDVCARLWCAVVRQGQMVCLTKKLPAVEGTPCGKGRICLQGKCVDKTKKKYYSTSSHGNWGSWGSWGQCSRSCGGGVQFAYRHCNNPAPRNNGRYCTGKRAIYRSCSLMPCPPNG
The data set can be described thus: InviLISA Aggrecanase activity assay, aggrecanase 2. It counts as biochemical. The following applies: for inhibition at 10 µM: inhibitors tested at 10 μM final concentration. As to the method:
as §1, §2, §3

The subject of data set [4] is mechanical hyperalgesia associated with STZ-induced diabetes. Nature of the data set: STZ-induced diabetes mechanical hyperalgesia, model of neuropathic pain (Randall-Selitto). The following applies: for MPE 0.5 hrs / MPE 1.5 hrs / MPE 3 hrs: NE = not effective. It counts as in vivo, rat. The protocol: Painful diabetic neuropathy is one of the most common complications of insulin-dependent diabetes in man; in particular, diabetes can be associated with neuropathic pain which fails to be treated by classical analgesics. Streptozotocin (STZ)-induced diabetes in the rat has been increasingly used as a model of painful diabetic neuropathy to assess the efficacies of potential analgesic agents (C. Courteix, Pain 1993, 53, 81-8). A representative compound of the invention was tested for efficacy in reducing mechanical hyperalgesia associated with STZ-induced diabetes in the rat, according to the experimental model as described by the literature. Diabetes was produced with the injection of a single dose (75 mg/Kg i.p.) of STZ. In the following four weeks after the induction of diabetes the clinical symptoms (weight, body and skin temperature, motility and hyperglycemia) progressively developed by the animals, are strictly monitored.
After four weeks, the scores obtained in diabetic rats to various pain stimuli (in particular mechanical stimuli) were greater than those in normal rats, indicating hyperalgesia. The hyperalgesia induced by diabetes was evaluated using the Randall-Selitto method as above described, and quantitated using the analgesimeter. Also in this case, the difference in the mechanical pain threshold between the basal value (generally 230-250 g) and the one tolerated by the animals treated with the drug, is defined as mechanical hyperalgesia. The compound of the invention was administered i.p. (solution, Tween 80, 10% in saline) at different doses, and mechanical hyperalgesia was measured at the reported time, as maximum percent effect (MPE) which represents the difference (%) in pain threshold between the animals treated with the drug and the controls that received only the vehicle, compared with the weight borne by naïf non-diabetic controls. A 100% protection means that the diabetic animals treated with the compound can tolerate the same stimulus (weight) as the naïf non-diabetic animals. MPE higher than 100% means that the diabetic animal treated with the compound can tolerate stimuli (weight) higher than the control non-diabetic animals (hypoalgesia).
In Table 4, the effect of a representative compound of formula (I), in the above described model of neuropathic pain, is compared with some known pharmacological standards used for the clinical treatment of this pathology. In particular, from the MPE data at 0.5 hrs, the doses yielding a protection of 50% (ED50) and 100% (ED100) have been calculated.

Data set [5] concerns CFA-induced prolonged inflammation. The data set can be described thus: CFA model of chronic inflammatory pain (Randall-Selitto). It counts as in vivo, rat. The following applies: for MPE 0.5 hrs / MPE 1.5 hrs / MPE 3 hrs / MPE 6 hrs / MPE 24 hrs: NE = not effective.
Where [6] appears, read: rat, OS, 4 hrs after zymosan, NC = not calculable.

For `Cc1ccc(-c2cc(C(F)(F)F)nn2-c2ccc(S(N)(=O)=O)cc2)cc1` [Celecoxib, reference compound], the ED50 in data set [1] (setting [6]) is 9 mg/kg.

For `CC(=N)Nc1ccc2oc(-c3ccc(F)cc3)cc(=O)c2c1` [Example 3, 2-(4-fluorophenyl)-6-[(1-iminoethyl)amino]-4H-1-benzopyran-4-one], in data set [2], the inhibition at 10 µM is 40%. For the same compound, the IC50 in data set [3] came out at 10000 nM. Besides, in data set [1] (setting [6]), the “ED100 4 hrs” value is given as 24 mg/kg and the ED50 is 12 mg/kg.

Consider `CS(=O)(=O)Nc1ccc([N+](=O)[O-])cc1Oc1ccccc1` [Nimesulide, reference compound], for which, in data set [1] (even at the higher doses tested), the ulcerative side effects entry is given as “ulcerative side effects”. Further, in data set [1] (setting [6]), the ED50 is 5 mg/kg.

On to `COc1ccc(-c2oc3ccc(NC(=N)CO)cc3c(=O)c2O)cc1` [Example 13, 2-(4-methoxyphenyl)-3-hydroxy-6-[(1-iminoethyl-2-hydroxy)amino]-4H-1-benzopyran-4-one hydrochloride monohydrate], for which, in data set [2], the inhibition at 10 µM is 0%. For the same compound, the IC50 in data set [3] was 2800 nM.

Take `CC(=N)Nc1ccc2oc(-c3ccc(-n4ccnc4)cc3)c(O)c(=O)c2c1` [Example 5, 2-[(4-imidazol-1-yl)-phenyl]-3-hydroxy-6-[(1-iminoethyl)amino]-4H-1-benzopyran-4-one hydrochloride]: the inhibition at 10 µM in data set [2] is 30%. Further, the concentration for half-maximal inhibition (IC50) in data set [3] worked out at 870 nM.

For the compound `CC(=N)Nc1ccc2oc(-c3ccc4c(c3)CCO4)c(O)c(=O)c2c1` [Example 15, 2-(dihydrobenzofuran-5-yl)-3-hydroxy-6-[(1-iminoethyl)amino]-4H-1-benzopyran-4-one hydrochloride], the inhibition at 10 µM in data set [2] is 10%. In addition, the IC50 in data set [3] came out at 15000 nM.

Take `COc1cccc(C2(O)CCCCC2CN(C)C)c1` (stereo not drawn) [Tramadol]: the ED50 is 25.7 mg/kg in data set [1] (Rattus norvegicus, 4 h) and 10.9 mg/kg in data set [4] (Rattus norvegicus, ip, 0.5 h, read-out: ED50 0.5 hrs, IP, calculated from the MPE data at 0.5 hrs, NC = not calculable). Besides, the “MPE 0.5 hrs” value stood at 26% in data set [4] (3 mg/Kg IP), 58% in data set [4] (10 mg/Kg IP), 54% in data set [4] (30 mg/Kg IP) and 81% in data set [4] (50 mg/Kg IP). For the same compound, the “MPE 1.5 hrs” value worked out at 53% in data set [4] (3 mg/Kg IP), 48% in data set [4] (10 mg/Kg IP), 64% in data set [4] (30 mg/Kg IP) and 60% in data set [4] (50 mg/Kg IP). Also, the “MPE 3 hrs” value in data set [4] (10 mg/Kg IP) came to 27%; in data set [4] (30 mg/Kg IP) it was 23%; in data set [4] (50 mg/Kg IP), 43%.

Take `COc1ccc(-c2oc3ccc(NC(C)=N)cc3c(=O)c2O)cn1` [Example 20, 2-(6-methoxypyridin-3-yl)-3-hydroxy-6-[(1-iminoethyl)amino]-4H-1-benzopyran-4-one]: the inhibition at 10 µM in data set [2] came out at 0%. In addition, the half-inhibitory concentration (IC50) in data set [3] is 2200 nM.

For `COc1ccc(-c2cc(=O)c3cc(NC(C)=N)ccc3o2)cc1` [Example 2, 2-(4-methoxyphenyl)-6-[(1-iminoethyl)amino]-4H-1-benzopyran-4-one hydrochloride monohydrate], the inhibition at 10 µM in data set [2] was determined as 30%. The inhibition at 10 µM in data set [3] came to 30%. In addition, the 50% effective dose (ED50) in data set [1] (Rattus norvegicus, 4 h) is 6.5 mg/kg. Also, the “ED100 4 hrs” value in data set [1] (setting [6]) is on record as 18 mg/kg. Moreover, in data set [5] (3 mg/Kg IP), the “MPE 0.5 hrs” value is given as 91%, the “MPE 1.5 hrs” value came to 87% and the “MPE 3 hrs” value was determined as 32%. Moreover, in data set [5] (10 mg/Kg IP), the “MPE 0.5 hrs” value stood at 193%, the “MPE 1.5 hrs” value came to 105%, the “MPE 3 hrs” value is on record as 42% and the “MPE 6 hrs” value amounted to 43%. Further, the “MPE 24 hrs” value in data set [5] (10 mg/Kg IP) is 38%. Further, in data set [5] (30 mg/Kg IP), the “MPE 0.5 hrs” value is listed as 254%, the “MPE 1.5 hrs” value is recorded as 190%, the “MPE 3 hrs” value was found to be 146% and the “MPE 6 hrs” value came out at 89%. The “MPE 24 hrs” value in data set [5] (30 mg/Kg IP) was found to be 45%. Further, the “ED100 0.5 hrs” value in data set [5] (IP, calculated from the MPE data at 0.5 hrs) is 3.15 mg/kg. For the same compound, the ED50 in data set [5] (Rattus norvegicus, ip, 0.5 h, read-out: ED50 0.5 hrs) turned out to be 1.56 mg/kg.

As for `CC(=N)Nc1ccc2oc(-c3ccc4c(c3)OCO4)cc(=O)c2c1` [Example 4, 2-(benzo[1,3]dioxol-5-yl)-6-[(1-iminoethyl)amino]-4H-1-benzopyran-4-one hydrochloride], the inhibition at 10 µM in data set [2] worked out at 40%; in data set [3] it was 10%. Moreover, in data set [1] (Rattus norvegicus, 4 h), the 50% effective dose (ED50) came to 12 mg/kg. The “ED100 4 hrs” value in data set [1] (setting [6]) is given as 35 mg/kg.
